Assay [1] deals with Human CB2R (Cannabanoid receptor 2) (Homo sapiens (Human), UniProt P34972). In words: CB-2 in vitro cAMP (HTRF) assay in HEK-293 cells. The settings on record: HEK-293 cells stably transfected with human CB2R, 250 nM Forskolin, mean where tested more than once, read-out: CB-2 (HEK_cAMP) EC50. The class given is cell-based. An excerpt: (§1) CB1 and CB2 receptors are Gi-coupled GPCR. Activation of CB1 and CB2 receptors results in a decrease in cAMP production. An inverse agonist of the CB1 or CB2 receptor results in the opposite effect, an increase of cAMP production. The principle of this assay is based on HTRF® technology (Homogeneous Time-Resolved Fluorescence). The method is a competitive immunoassay between native cAMP produced by cells and the cAMP labeled with the fluorophore d2. The tracer binding is quantified by a Mab anti-cAMP labeled with Eu3+TBP-NHS Cryptate (supplied as part of the assay kit). The specific signal (i.e. energy transfer) is inversely proportional to the concentration of cAMP in the standard or sample.
(§2) Human CB1R (Cannabanoid receptor 1) was stably transfected in HEK-293 cells (DiscoveRx, cat: 93-0200C1). Human CB2R (Cannabanoid receptor 2) was stably transfected in HEK-293 cells (DiscoveRx, cat: 93-0201C1). Cell cultures were maintained in media: DMEM (Invitrogen Cat#12430-054) supplemented with 10% HI FBS (Invitrogen Cat#16140-071), 1% L-glutamine (Invitrogen Cat#25030-081), 0.2 mg/ml Hygromycin B (Invitrogen Cat#10687-010), 600 μg/mL G418 (Invitrogen Cat#10131-035), and 1× Penn/Strep (Invitrogen 15140-122). After cell expansion, aliquots were cryo-stored in media containing 5% DMSO (Pierce Cat#20684).
(§3) One day prior to experiments media was warmed to 37° C. and the cryo-stored cells were thawed in a 37° C. water bath. The cells were then added to media (10× volume) and the mixture was centrifugated at 1000 RPM for 5 min. The supernate was removed and the cells were re-suspended in media. A sample of the cell suspension was evaluated on a Cedex XS automated cell counter (Innovatis Systems) to determine viable cells/ml. Additional media was added to the cells to achieve a final cell density of 4E5 cells/mL. The cells were then plated into 384 well PDL white solid bottom plates (Greiner, Cat#781945) at 20 μL per well using a Multidrop (Thermo Scientific). Cells were removed from Row P (location of cAMP standards). Two columns of cells were plated into a clear bottom 384 well PDL coated plate (Greiner, Cat#781944) to view confluence the day of the assay. The cell plates were lidded and stored for 15 minutes in a hood, then transferred to an incubator (37° C., 5% CO2, 95% humidity) overnight.
(§4) DMSO was added to all wells of 384 well V bottom polystyrene plate (Greiner, Cat#781280) except to columns 1 and 13, rows O and P and wells M13-M23 and N13-N23. Test compounds (60 μL, 10 mM) were added to Column 1 and 13 (A1 through N1 and A13 through L13). Test compounds were serially diluted 1/3 by transferring and mixing 20 μl sample with 40 μL DMSO.
(§5) DMSO (40 μL) was added to wells of 384 well V bottom polystyrene plate: O2 through O11, M14 through M23, N14 through N23, and O14 through 023. AM630 (also known as [6-iodo-2-methyl-1-[2-(4-morpholinyl)ethyl]-1H-indol-3-yl](4-methoxyphenyl)-methanone, Cayman Chemical, Cat#10006974) (60 μL, 10 mM) was added to 01; and 1-(2,4-dichlorophenyl)-7-[(4-fluorophenyl)methylene]-4,5,6,7-tetrahydro-N-1-piperidinyl-1H-indazole-3-carboxamide (60 μL, 10 mM) was added to N13. The control was serially diluted 1/3 by transferring and mixing 20 μl sample with 40 μL DMSO. This process resulted 11 doses per control, 10 mM to […].
(§6) Cells plated the day prior to the assay in clear bottom plates were viewed on an inverse microscope to ensure confluency in the range of 60-75%. […]

The target of assay [2] is Human CB1R (Cannabanoid receptor 1) (Homo sapiens (Human), UniProt P21554). In words: CB-1 in vitro cAMP (HTRF) assay in HEK-293 cells. The class given is cell-based. The settings on record: HEK-293 cells stably transfected with human CB1R, 250 nM Forskolin, mean where tested more than once, read-out: CB-1 (HEK_cAMP) EC50.
From the text: as §1, §2, §3, §4, §5, §6
On the technique in general: TR-FRET usually uses a lanthanide donor and a delayed reading to cut background.

Chain of Human CB1R (Cannabanoid receptor 1) (P21554 whole entry): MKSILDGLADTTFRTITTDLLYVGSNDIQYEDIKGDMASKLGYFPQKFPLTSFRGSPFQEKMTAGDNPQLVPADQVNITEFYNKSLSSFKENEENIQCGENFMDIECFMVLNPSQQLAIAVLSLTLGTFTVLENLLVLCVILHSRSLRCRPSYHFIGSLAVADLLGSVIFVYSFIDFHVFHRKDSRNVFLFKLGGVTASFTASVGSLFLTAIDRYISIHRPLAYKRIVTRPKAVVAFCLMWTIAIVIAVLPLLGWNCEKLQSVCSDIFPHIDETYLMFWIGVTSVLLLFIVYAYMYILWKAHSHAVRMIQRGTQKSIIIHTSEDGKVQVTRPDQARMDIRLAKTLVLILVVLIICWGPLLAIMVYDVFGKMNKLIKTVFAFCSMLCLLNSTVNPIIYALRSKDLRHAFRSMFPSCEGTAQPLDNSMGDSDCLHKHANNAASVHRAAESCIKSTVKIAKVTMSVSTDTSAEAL
Chain of Human CB2R (Cannabanoid receptor 2) (P34972 whole entry): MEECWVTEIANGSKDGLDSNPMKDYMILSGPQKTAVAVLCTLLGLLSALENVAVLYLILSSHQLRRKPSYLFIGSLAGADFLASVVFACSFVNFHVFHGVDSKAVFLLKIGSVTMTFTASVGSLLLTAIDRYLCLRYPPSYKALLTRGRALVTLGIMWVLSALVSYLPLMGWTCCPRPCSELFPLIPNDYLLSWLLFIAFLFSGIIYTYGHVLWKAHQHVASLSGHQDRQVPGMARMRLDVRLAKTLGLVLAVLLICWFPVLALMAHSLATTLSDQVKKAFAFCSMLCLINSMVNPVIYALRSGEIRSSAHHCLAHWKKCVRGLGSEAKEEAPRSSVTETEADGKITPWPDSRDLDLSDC

On to `O=S(=O)(N1CCC(c2nn(-c3cccc(C(F)(F)F)c3)c3ccc(C(c4ccc(Cl)cc4)c4ccc(Cl)cc4)cc23)CC1)C(F)(F)F` [Compound 57], for which the results for the 50% effective concentration (EC50) in assay [1] and in assay [2] were over 10000 nM and 474 nM, respectively.
Turning to `O=S(=O)(N1CCC(c2nn(-c3ccc(Cl)c(Cl)c3)c3ccc(C(c4ccc(Cl)cc4)c4ccc(Cl)cc4)cc23)CC1)C(F)(F)F` [Compound 58], the EC50 was over 10000 nM in assay [1] and 13 nM in assay [2].
In the case of `O=S(=O)(c1cccc(C(F)(F)F)c1)N1CCC(c2n[nH]c3ccc(C(c4ccc(Cl)cc4)c4ccc(Cl)cc4)cc23)CC1` [Compound 59], the EC50 in assay [1] was over 10000 nM; in assay [2] it was 374 nM.
In the case of `COC(=O)c1cccc(S(=O)(=O)N2CCC(c3n[nH]c4ccc(C(c5ccc(Cl)cc5)c5ccc(Cl)cc5)cc34)CC2)c1` [Compound 60], the 50% effective concentration (EC50) in assay [1] is over 10000 nM; in assay [2], 65 nM.
On the same counts, the results for `O=C(O)c1cccc(S(=O)(=O)N2CCC(c3n[nH]c4ccc(C(c5ccc(Cl)cc5)c5ccc(Cl)cc5)cc34)CC2)c1` [Compound 61] are over 10000 nM and 191 nM.
On the same counts, the results for `Cn1nc(C2CCN(S(=O)(=O)c3ccc(C(=O)O)cc3)CC2)c2cc(C(c3ccc(Cl)cc3)c3ccc(Cl)cc3)ccc21` [Compound 62] are over 10000 nM and 845 nM.
For `Cn1nc(C2CCN(S(=O)(=O)c3cccc(C(=O)O)c3)CC2)c2cc(C(c3ccc(Cl)cc3)c3ccc(Cl)cc3)ccc21` [Compound 63], the EC50 is over 10000 nM in assay [1] and 66 nM in assay [2].
Take `Cn1nc(C2CCN(S(=O)(=O)c3ccc(C(N)=O)cc3)CC2)c2cc(C(c3ccc(Cl)cc3)c3ccc(Cl)cc3)ccc21` [Compound 64]: the EC50 in assay [1] was over 10000 nM; in assay [2] it was 24 nM.
In the case of `NC(=O)c1cccc(S(=O)(=O)N2CCC(c3n[nH]c4ccc(C(c5ccc(Cl)cc5)c5ccc(Cl)cc5)cc34)CC2)c1` [Compound 65], the EC50 in assay [1] was over 10000 nM; in assay [2] it was 25 nM.
Consider `NC(=O)c1cccc(S(=O)(=O)N2CCC(c3n[nH]c4ccc(C(c5ccc(Cl)cc5)c5ccc(Cl)cc5)cc34)CC2)c1` [Compound 66], for which the EC50 in assay [1] was over 10000 nM; in assay [2], 160 nM.
Take `COc1ccc(C(c2ccc(OC)cc2)c2ccc3[nH]nc(C4CCN(S(=O)(=O)C(F)(F)F)CC4)c3c2)cc1` [Compound 67]: the EC50 came out at 5200 nM in assay [1] and 2 nM in assay [2].
For `O=C(O)c1cccc(S(=O)(=O)N2CCC(c3nn(CCO)c4ccc(C(c5ccc(Cl)cc5)c5ccc(Cl)cc5)cc34)CC2)c1` [Compound 68], the EC50 in assay [1] was over 10000 nM; in assay [2], 85 nM.
As to `NC(=O)c1ccc(S(=O)(=O)N2CCC(c3nn(CCO)c4ccc(C(c5ccc(Cl)cc5)c5ccc(Cl)cc5)cc34)CC2)cc1` [Compound 69], the EC50 in assay [1] is over 10000 nM; in assay [2] it was 26 nM.
With `NC(=O)c1ccccc1S(=O)(=O)N1CCC(c2nn(CCO)c3ccc(C(c4ccc(Cl)cc4)c4ccc(Cl)cc4)cc23)CC1` [Compound 70], the EC50 in assay [1] was over 10000 nM; in assay [2], 428 nM.
Consider `NS(=O)(=O)c1cccc(C(=O)N2CCC(c3nn(CCO)c4ccc(C(c5ccc(Cl)cc5)c5ccc(Cl)cc5)cc34)CC2)c1` [Compound 71], for which the EC50 in assay [1] was over 10000 nM; in assay [2] it was 68 nM.
The matching figures for `NS(=O)(=O)c1ccc(C(=O)N2CCC(c3nn(CCO)c4ccc(C(c5ccc(Cl)cc5)c5ccc(Cl)cc5)cc34)CC2)cc1` [Compound 72]: over 10000 nM and 39 nM.
In the case of `O=C(O)Cn1nc(C2CCN(S(=O)(=O)C(F)(F)F)CC2)c2cc(C(c3ccc(Cl)cc3)c3ccc(Cl)cc3)ccc21` [Compound 73], the values for the EC50 in assay [1] and in assay [2] were over 10000 nM and 762 nM, respectively.
`CC(C)(C)OC(=O)N1CCC(Nc2n[nH]c3ccc(C(c4ccc(Cl)cc4)c4ccc(Cl)cc4)cc23)CC1` [Compound 74]: the EC50 in assay [1] is over 10000 nM; in assay [2] it was 162 nM.
Take `CCOC(=O)Cn1nc(C2CCN(S(=O)(=O)C(F)(F)F)CC2)c2cc(C(c3ccc(Cl)cc3)c3ccc(Cl)cc3)ccc21` [Compound 75]: the EC50 is over 10000 nM in assay [1] and 3920 nM in assay [2].
On to `CC(C)(C)OC(=O)N1CCC(c2nn(CCO)c3ccc(C(c4ccc(Cl)cc4)c4ccc(Cl)cc4)cc23)CC1` [Compound 76], for which the EC50 in assay [1] was over 10000 nM; in assay [2], 112 nM.
The matching figures for `O=S(=O)(N1CCC(Nc2n[nH]c3ccc(C(c4ccc(Cl)cc4)c4ccc(Cl)cc4)cc23)CC1)C(F)(F)F` [Compound 77]: over 10000 nM and 60 nM.
As for `CC(C)S(=O)(=O)N1CCC(Nc2n[nH]c3ccc(C(c4ccc(Cl)cc4)c4ccc(Cl)cc4)cc23)CC1` [Compound 78], the EC50 was over 10000 nM in assay [1] and 179 nM in assay [2].
On the same counts, the results for `O=S(=O)(N1CCC(c2nn(CCO)c3ccc(C(c4ccc(Cl)cc4)c4ccc(Cl)cc4)cc23)CC1)C(F)(F)F` [Compound 79] are over 10000 nM and 14 nM.
For the compound `O=C(O)c1ccc(S(=O)(=O)N2CCC(c3nn(CCO)c4ccc(C(c5ccc(Cl)cc5)c5ccc(Cl)cc5)cc34)CC2)cc1` [Compound 80], the EC50 is over 10000 nM in assay [1] and 374 nM in assay [2].
As to `O=S(=O)(C(F)F)N1CCC(c2n[nH]c3ccc(C(c4ccc(Cl)cc4)c4ccc(Cl)cc4)cc23)CC1` [Compound 81], the EC50 was over 10000 nM in assay [1] and 7320 nM in assay [2].
For the compound `NC(=O)c1cccc(S(=O)(=O)N2CCC(c3nn(CCO)c4ccc(C(c5ccc(Cl)cc5)c5ccc(Cl)cc5)cc34)CC2)c1` [Compound 82], the results for the 50% effective concentration (EC50) in assay [1] and in assay [2] were over 10000 nM and 82 nM, respectively.
`O=C(O)CCS(=O)(=O)N1CCC(c2nn(CCO)c3ccc(C(c4ccc(Cl)cc4)c4ccc(Cl)cc4)cc23)CC1` [Compound 83]: the EC50 in assay [1] is over 10000 nM; in assay [2], 1570 nM.
In the case of `O=C(O)c1ccccc1S(=O)(=O)N1CCC(c2nn(C3CC3)c3ccc(C(c4ccc(Cl)cc4)c4ccc(Cl)cc4)cc23)CC1` [Compound 87], the EC50 in assay [1] is over 10000 nM; in assay [2], 6740 nM.
The matching figures for `O=C(O)c1cccc(S(=O)(=O)N2CCC(c3nn(C4CC4)c4ccc(C(c5ccc(Cl)cc5)c5ccc(Cl)cc5)cc34)CC2)c1` [Compound 88]: over 10000 nM and 115 nM.
Consider `O=C(O)c1ccc(S(=O)(=O)N2CCC(c3nn(C4CC4)c4ccc(C(c5ccc(Cl)cc5)c5ccc(Cl)cc5)cc34)CC2)cc1` [Compound 89], for which the results for the EC50 in assay [1] and in assay [2] were over 10000 nM and 339 nM, respectively.
On to `NC(=O)CC(=O)N1CCC(c2nn(C3CC3)c3ccc(C(c4ccc(Cl)cc4)c4ccc(Cl)cc4)cc23)CC1` [Compound 90], for which the EC50 in assay [1] worked out at 3100 nM; in assay [2] it was 716 nM.
Turning to `O=C(CO)N1CCC(c2nn(C3CC3)c3ccc(C(c4ccc(Cl)cc4)c4ccc(Cl)cc4)cc23)CC1` [Compound 91], the 50% effective concentration (EC50) was over 10000 nM in assay [1] and 39 nM in assay [2].
On the same counts, the results for `NC(=O)CCC(=O)N1CCC(c2nn(C3CC3)c3ccc(C(c4ccc(Cl)cc4)c4ccc(Cl)cc4)cc23)CC1` [Compound 92] are over 10000 nM and 29 nM.
On the same counts, the results for `NC(=O)c1ccccc1S(=O)(=O)N1CCC(c2nn(C3CC3)c3ccc(C(c4ccc(Cl)cc4)c4ccc(Cl)cc4)cc23)CC1` [Compound 93] are over 10000 nM and 533 nM.

The term EC50 denotes the midpoint of the concentration-response curve.
